Reference: patent US9216173B2, “2-Pyridyl carboxamide-containing spleen tyrosine kinase (SYK) inhibitors” (Merck Sharp & Dohme Corp., priority 2011, dated 2015)

target: T1, recombinant human GST-SYK (Homo sapiens, UniProt P43405); assay: Homogeneous Time-Resolved Fluorescence (HTRF) assay for the recombinant human Syk enzyme; format: biochemical; settings: GST-hSYK 5 pM, ATP 25 μM, 10-dose titration 10 μM to 0.508 nM; read-out: IC50
T1 construct: purchased Carna Biosciences 08-176
Protocol: Homogeneous Time-Resolved Fluorescence (HTRF) Assay for the Recombinant Human Syk Enzyme
A recombinant GST-hSYK fusion protein was used to measure potency of compounds to inhibit human Syk activity. […] Final volume of the reaction was 10 μL. Phosphorylation of the peptide was allowed to proceed for 45 minutes at room temperature. To quench the reaction and detect the phosphorylated product, 2 nM of a Europium-anti-phosphotyrosine antibody (Perkin Elmer #AD0161) and 70 nM SA-APC (Perkin-Elmer #CR130-100) were added together in 15 mM Tris pH 7.5, 40 mM EDTA, 0.01% tween 20. Final volume of the quenching solution was 10 μL. The resulting HTRF signal was measured after 30 minutes on an EnVision (Perkin-Elmer) reader using a time-resolved fluorescence protocol.

Going from `Cc1cc(C)nc(Nc2cc(NC(C(N)=O)C(C)C)cnc2C(N)=O)c1` (centres unmarked) [Example 1.41, 5-[(1-carbamoyl-2-methylpropyl)amino]-3-[(4,6-dimethylpyridin-2-yl)amino]pyridine-2-carboxamide] to `Cc1cc(C)nc(Nc2cc(N[C@@H](CC(C)C)C(N)=O)cnc2C(N)=O)c1` [Example 1.46, N^2-{6-carbamoyl-5-[(4,6-dimethylpyridin-2-yl)amino]pyridin-3-yl}- -leucinamide], the IC50 falls from 12 nM to 7.8 nM (1.5-fold).

same assay, conditions: GST-hSYK 5 pM, ATP 25 μM, 10-dose titration 10 μM to 0.508 nM; read-out: rhSYK Activity (IC50 rating)

`Cc1cc(C)nc(Nc2cc(NCC3(N)CCOCC3)cnc2C(N)=O)c1` [Example 1.34, 5-{[(4-aminotetrahydro-2H-pyran-4-yl)methyl]amino}-3-[(4,6-dimethylpyridin-2-yl)amino]pyridine-2-carboxamide] and `Cc1cc(C)nc(Nc2cc(NCC3(N)CCOC3)cnc2C(N)=O)c1` (centres unmarked) [Example 1.35, 5-{[(3-aminotetrahydrofuran-3-yl)methyl]amino}-3-[(4,6-dimethylpyridin-2-yl)amino]pyridine-2-carboxamide] fall in the same range of IC50: 10 to 100 nM for the first, 10 to 100 nM for the second.

`Cc1cc(Cl)nc(Nc2cc(N[C@@H]3CCCC[C@@H]3N)cnc2C(N)=O)c1` [Example 1.38, 5-{[(1R,2S)-2-aminocyclohexyl]amino}-3-[(6-chloro-4-methylpyridin-2-yl)amino]pyridine-2-carboxamide] and `NC(=O)c1ncc(N[C@@H]2CCCC[C@@H]2N)cc1Nc1cc(Cl)cc(Cl)n1` [Example 1.73, 5-{[(1R,2S)-2-aminocyclohexyl]amino}-3-[(4,6-dichloropyridin-2-yl)amino]pyridine-2-carboxamide] cannot be ordered by IC50: under 10 nM for the first, under 10 nM for the second.

`Cc1cc(C)nc(Nc2cc(NC(C)C(N)=O)cnc2C(N)=O)c1` (centres unmarked) [Example 1.39, 5-[(2-amino-1-methyl-2-oxoethyl)amino]-3-[(4,6-dimethylpyridin-2-yl)amino]pyridine-2-carboxamide] and `Cc1cc(C)nc(Nc2cc(NC(C(N)=O)C(C)C)cnc2C(N)=O)c1` (centres unmarked) [Example 1.41, 5-[(1-carbamoyl-2-methylpropyl)amino]-3-[(4,6-dimethylpyridin-2-yl)amino]pyridine-2-carboxamide] fall in the same range of IC50: 10 to 100 nM for the first, 10 to 100 nM for the second.

`Cc1cc(C)nc(Nc2cc(N[C@@H](CC(C)C)C(N)=O)cnc2C(N)=O)c1` [Example 1.40, N^2-{6-carbamoyl-5-[(4,6-dimethylpyridin-2-yl)amino]pyridin-3-yl}leucinamide] and `CCOCC(N)CNc1cnc(C(N)=O)c(Nc2cc(C)cc(C)n2)c1` (centres unmarked) [Example 1.70, 5-[(2-amino-3-ethoxypropyl)amino]-3-[(4,6-dimethylpyridin-2-yl)amino]pyridine-2-carboxamide] cannot be ordered by IC50: under 10 nM for the first, under 10 nM for the second.

`NC(=O)c1ncc(N[C@@H]2CCCC[C@@H]2N)cc1Nc1cccc(-c2ccccn2)n1` [Example 1.42, 5-{[(1R,2S)-2-aminocyclohexyl]amino}-3-(2,2′-bipyridin-6-ylamino)pyridine-2-carboxamide] and `NC(=O)c1ncc(N[C@@H]2CCCC[C@@H]2N)cc1Nc1cccc(F)n1` [Example 1.48, 5-{[(1R,2S)-2-aminocyclohexyl]amino}-3-[(6-fluoropyridin-2-yl)amino]pyridine-2-carboxamide] cannot be ordered by IC50: under 10 nM for the first, under 10 nM for the second.

First: NC(=O)c1ncc(N[C@@H]2CCCC[C@@H]2N)cc1Nc1ncn(-c2ccccc2)n1 [Example 1.44, 5-{[(1R,2S)-2-aminocyclohexyl]amino}-3-[(1-phenyl-1H-1,2,4-triazol-3-yl)amino]pyridine-2-carboxamide]
Second: NC(=O)c1ncc(N[C@@H]2CCCC[C@@H]2N)cc1Nc1cnn(-c2ccccc2)n1 [Example 1.51, 5-{[(1R,2S)-2-aminocyclohexyl]amino}-3-[(2-phenyl-2H-1,2,3-triazol-4-yl)amino]pyridine-2-carboxamide]
The IC50 of the first is higher: 10 to 100 nM for the first, under 10 nM for the second.

`Cc1cc(C)nc(Nc2cc(N[C@@H](CC(C)C)C(N)=O)cnc2C(N)=O)c1` [Example 1.45, N^2-{6-carbamoyl-5-[(4,6-dimethylpyridin-2-yl)amino]pyridin-3-yl}- -leucinamide] and `Cc1cc(C)nc(Nc2cc(N[C@H]3[C@@H](N)CCCC3(F)F)cnc2C(N)=O)c1` [Example 1.47, 5-{[(1S,6S)-6-amino-2,2-difluorocyclohexyl]amino}-3-[(4,6-dimethylpyridin-2-yl)amino]pyridine-2-carboxamide] cannot be ordered by IC50: under 10 nM for the first, under 10 nM for the second.

First: CCn1ccc(Nc2cc(N[C@@H]3CCCC[C@@H]3N)cnc2C(N)=O)n1 [Example 1.49, 5-{[(1R,2S)-2-aminocyclohexyl]amino}-3-[(1-ethyl-1H-pyrazol-3-yl)amino]pyridine-2-carboxamide]
Second: CCn1cnc(Nc2cc(N[C@@H]3CCCC[C@@H]3N)cnc2C(N)=O)n1 [Example 1.56, 5-{[(1R,2S)-2-aminocyclohexyl]amino}-3-[(1-ethyl-1H-1,2,4-triazol-3-yl)amino]pyridine-2-carboxamide]
The IC50 of the first is lower: 10 to 100 nM for the first, 100 to 1000 nM for the second. The first is the more potent here.

First: NC(=O)c1ncc(N[C@@H]2CCCC[C@@H]2N)cc1Nc1ccn(Cc2ccccc2)n1 [Example 1.50, 5-{[(1R,2S)-2-aminocyclohexyl]amino}-3-[(1-benzyl-1H-pyrazol-3-yl)amino]pyridine-2-carboxamide]
Second: NC(=O)c1ncc(N[C@@H]2CCCC[C@@H]2N)cc1Nc1ccn(-c2ccc(Cl)cc2)n1 [Example 1.63, 5-{[(1R,2S)-2-aminocyclohexyl]amino}-3-{[1-(4-chlorophenyl)-1H-pyrazol-3-yl]amino}pyridine-2-carboxamide]
The IC50 of the first is higher: 10 to 100 nM for the first, under 10 nM for the second.

`NC(=O)c1ncc(N[C@@H]2CCCC[C@@H]2N)cc1Nc1cccc(C2CC2)n1` [Example 1.53, 5-{[(1R,2S)-2-aminocyclohexyl]amino}-3-[(6-cyclopropylpyridin-2-yl)amino]pyridine-2-carboxamide] and `CC(C)c1cccc(Nc2cc(N[C@@H]3CCCC[C@@H]3N)cnc2C(N)=O)n1` [Example 1.54, 5-{[(1R,2S)-2-aminocyclohexyl]amino}-3-{[6-(1-methylethyl)pyridin-2-yl]amino}pyridine-2-carboxamide] cannot be ordered by IC50: under 10 nM for the first, under 10 nM for the second.

Compared with `Cc1cc(C)n2nc(Nc3cc(N[C@@H]4CCCC[C@@H]4N)cnc3C(N)=O)cc2n1` [Example 1.55, 5-{[(1R,2S)-2-aminocyclohexyl]amino}-3-[(5,7-dimethylpyrazolo[1,5-a]pyrimidin-2-yl)amino]pyridine-2-carboxamide], `Cc1cc(C(=O)N(C)C)cc(Nc2cc(N[C@@H]3CCCC[C@@H]3N)cnc2C(N)=O)n1` [Example 1.59, 5-{[(1R,2S)-2-aminocyclohexyl]amino}-3-{[4-(dimethylcarbamoyl)-6-methylpyridin-2-yl]amino}pyridine-2-carboxamide] is higher in IC50: under 10 nM for the first, 10 to 100 nM for the second. The first is the more potent here.

First: NC(=O)c1ncc(N[C@@H]2CCCC[C@@H]2N)cc1Nc1cccc(N2CCOCC2)n1 [Example 1.57, 5-{[(1R,2S)-2-aminocyclohexyl]amino}-3-[(6-morpholin-4-ylpyridin-2-yl)amino]pyridine-2-carboxamide]
Second: NC(=O)c1ncc(N[C@@H]2CCCC[C@@H]2N)cc1Nc1cccc(CN2CCOCC2)n1 [Example 1.60, 5-{[(1R,2S)-2-aminocyclohexyl]amino}-3-{[6-(morpholin-4-ylmethyl)pyridin-2-yl]amino}pyridine-2-carboxamide]
The IC50 of the first is lower: under 10 nM for the first, 100 to 1000 nM for the second.

`NCCNc1cnc(C(N)=O)c(Nc2cccc(-n3nccn3)n2)c1` [Example 1.58, 5-[(2-aminoethyl)amino]-3-{[6-(2H-1,2,3-triazol-2-yl)pyridin-2-yl]amino}pyridine-2-carboxamide] and `Cc1nc(Nc2cc(N[C@@H]3CCCC[C@@H]3N)cnc2C(N)=O)ccc1-n1nccn1` [Example 1.67, 5-{[(1R,2S)-2-aminocyclohexyl]amino}-3-{[6-methyl-5-(2H-1,2,3-triazol-2-yl)pyridin-2-yl]amino}pyridine-2-carboxamide] cannot be ordered by IC50: under 10 nM for the first, under 10 nM for the second.

First: CN1CCN(Cc2cccc(Nc3cc(N[C@@H]4CCCC[C@@H]4N)cnc3C(N)=O)n2)CC1 [Example 1.61, 5-{[(1R,2S)-2-aminocyclohexyl]amino}-3-({6-[(4-methylpiperazin-1-yl)methyl]pyridin-2-yl}amino)pyridine-2-carboxamide]
Second: Cn1ncc(Nc2cc(N[C@@H]3CCCC[C@@H]3N)cnc2C(N)=O)n1 [Example 1.62, 5-{[(1R,2S)-2-aminocyclohexyl]amino}-3-[(2-methyl-2H-1,2,3-triazol-4-yl)amino]pyridine-2-carboxamide]
The IC50 of the first is higher: 100 to 1000 nM for the first, 10 to 100 nM for the second.

`Cc1ccc(-n2ccc(Nc3cc(N[C@@H]4CCCC[C@@H]4N)cnc3C(N)=O)n2)cc1` [Example 1.64, 5-{[(1R,2S)-2-aminocyclohexyl]amino}-3-{[1-(4-methylphenyl)-1H-pyrazol-3-yl]amino}pyridine-2-carboxamide] and `NC(=O)c1ncc(N[C@@H]2CCCC[C@@H]2N)cc1Nc1ccn(-c2ccc(F)cc2)n1` [Example 1.65, 5-{[(1R,2S)-2-aminocyclohexyl]amino}-3-{[1-(4-fluorophenyl)-1H-pyrazol-3-yl]amino}pyridine-2-carboxamide] cannot be ordered by IC50: under 10 nM for the first, under 10 nM for the second.

`Cc1ccc(-n2ccc(Nc3cc(N[C@@H]4CCCC[C@@H]4N)cnc3C(N)=O)n2)cc1C` [Example 1.66, 5-{[(1R,2S)-2-aminocyclohexyl]amino}-3-{[1-(3,4-dimethylphenyl)-1H-pyrazol-3-yl]amino}pyridine-2-carboxamide] and `COc1ccc(-n2ccc(Nc3cc(N[C@@H]4CCCC[C@@H]4N)cnc3C(N)=O)n2)cc1` [Example 1.72, 5-{[(1R,2S)-2-aminocyclohexyl]amino}-3-{[1-(4-methoxyphenyl)-1H-pyrazol-3-yl]amino}pyridine-2-carboxamide] cannot be ordered by IC50: under 10 nM for the first, under 10 nM for the second.

Work on `Cn1ncc2c(Nc3cc(N[C@@H]4CCCC[C@@H]4N)cnc3C(N)=O)nc(-c3ccccc3)nc21` [Example 1.69, 5-{[(1R,2S)-2-aminocyclohexyl]amino}-3-[(1-methyl-6-phenyl-1H-pyrazolo[3,4-d]pyrimidin-4-yl)amino]pyridine-2-carboxamide] yielded an IC50 of under 10 nM.
